US6348456B1, “Method of treating chemical dependency in mammals and a composition therefor” (priority 1994, dated 2002)

Assay: plasma concentration of ibogaine and its metabolite 12-hydroxy ibogamine over time after ibogaine administration to a human patient
Assay type: in vivo
Procedure: An amount of ibogaine was administered to a human patient, and the plasma concentration of both ibogaine and a metabolite thereof, 12-hydroxy ibogamine, were observed as a function of time.
FIG. 1 illustrates the result of administering a certain dosage of ibogaine to a human patient, where the plasma concentration of ibogaine is measured over time. In essence, a peak plasma concentration of about 1,100 ng/ml is observed at administration. It is also notable that at about 11 hours after ibogaine administration, plasma concentration of ibogaine diminished to less than 400 ng/ml. After about 24 hours, plasma concentration diminished to less than 200 ng/ml. Thus, ibogaine is rather quickly eliminated by the patient.
By contrast, FIG. 2 illustrates the variation of noribogaine plasma concentration with time as a metabolite from the same ibogaine administration described above. In essence, a peak plasma concentration of noribogaine of about 590 ng/ml was reached only after about 11 hours from administration. Thereafter, even at 24 hours, a plasma concentration of greater than 500 ng/ml was observed.

SMILES	plasma half-life compared with ibogaine (after ibogaine administration)	plasma concentration of noribogaine (at 24 hours, metabolite after ibogaine administration)	time from administration to peak plasma concentration of noribogaine (noribogaine as metabolite after ibogaine administration)	peak plasma concentration of noribogaine (noribogaine as metabolite from the same ibogaine administration (FIG. 2))	plasma concentration of ibogaine (after about 24 hours)	plasma concentration of ibogaine (at about 11 hours after ibogaine administration)	peak plasma concentration of ibogaine (ibogaine administered, (FIG. 1))
CC[C@H]1C[C@H]2C[C@H]3c4[nH]c5ccc(O)cc5c4CCN(C2)[C@@H]13 [noribogaine, 12-hydroxy ibogamine]	much longer plasma half-life than ibogaine	greater than 500 ng/ml	about 11 hours	about 590 ng/ml	–	–	–
CC[C@H]1CC2C[C@H]3c4[nH]c5ccc(OC)cc5c4CCN(C2)C13 [ibogaine, reference compound]	–	–	–	–	less than 200 ng/ml	less than 400 ng/ml	about 1,100 ng/ml
